Drawing on EP0416393A1, “Peptidyl difluorodiol renin inhibitors” (ABBOTT LABORATORIES, priority 1989, dated 1991), this text covers IC50 for 11 compounds.

The target in this assay is T1, human renal renin (Homo sapiens, UniProt P00797).
T1 construct: human renal renin, free from acid proteolytic activity; from tissue; host or cells: human kidney (concluded from the word 'renal')
T1 sequence (P00797 67-406): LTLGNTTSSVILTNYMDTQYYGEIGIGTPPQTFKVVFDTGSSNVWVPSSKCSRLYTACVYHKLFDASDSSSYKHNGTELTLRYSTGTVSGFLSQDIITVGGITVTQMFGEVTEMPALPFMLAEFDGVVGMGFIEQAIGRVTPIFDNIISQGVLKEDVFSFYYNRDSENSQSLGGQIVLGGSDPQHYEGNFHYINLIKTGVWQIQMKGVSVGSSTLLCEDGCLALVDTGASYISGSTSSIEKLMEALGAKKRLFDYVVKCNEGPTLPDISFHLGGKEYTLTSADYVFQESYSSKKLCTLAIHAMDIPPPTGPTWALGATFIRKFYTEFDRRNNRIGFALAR
Put plainly: Inhibition of human renal renin with human angiotensinogen substrate; angiotensin I formed measured by radioimmunoassay. It is filed as biochemical. The conditions noted are these: 37 degrees C, pH 6.0; read-out: IC₅₀. The method, then:
At the end of the incubation, the amount of angiotensin I formed is measured by radioimmunoassay and the molar concentration required to cause 50% inhibition, expressed as the IC₅₀ is calculated. […]

As for `CC(C)C[C@H](NC(=O)[C@H](Cc1ccccc1)NC(=O)OC(C)(C)C)C(=O)N[C@@H](CC1CCCCC1)[C@@H](O)C(F)(F)[C@H](O)C(C)C` [Example 60, Boc-Phe-Leu amide of 2(S)-Amino-1-cyclohexyl-4,4-difluoro-3(R),5(R)dihydroxy-6-methylheptane], the IC50 is 0.64 nM. The same measure for `CC(C)CC(NC(=O)C(Cc1ccccc1)NC(=O)OC(C)(C)C)C(=O)NC(CC1CCCCC1)C(O)C(F)(F)C(O)C(C)C` [Example 61, Boc-Phe-Leu amide of 2(S)-Amino-1-cyclohexyl-4,4-difluoro-3(R),5(S)-dihydroxy-6-methylheptane]: 22 nM; for `CC(C)[C@@H](O)C(F)(F)[C@H](O)[C@H](CC1CCCCC1)NC(=O)[C@H](Cc1c[nH]cn1)NC(=O)[C@H](Cc1ccccc1)NC(=O)OC(C)(C)C` [Example 77, Boc-Phe-His-amide of 2(S)-Amino-1-cyclohexyl-4,4-difluoro-3(R),5(R)-dihydroxy-6-methylheptane]: 1.2 nM; for `CC(O)C(F)(F)C(O)C(CC1CCCCC1)NC(=O)C(Cc1c[nH]cn1)NC(=O)C(Cc1ccccc1)NC(=O)OC(C)(C)C` [Example 78, Boc-Phe-His amide of 2(S)-Amino-1-cyclohexyl-4,4-difluoro-3(R),5(R,S)-dihydroxyhexane]: 2.5 nM. For `CC(C)[C@@H](O)C(F)(F)[C@H](O)[C@H](CC1CCCCC1)NC(=O)C(Cc1cnc[nH]1)NC(=O)C(Cc1ccc(O)cc1)N(C)C(=O)CC(C)(C)NC(=O)OCc1ccccc1` (stereo partly drawn) [Example 80, Cbz((β,β-di-Me)-β-Ala)-(Me)Tyr-His amide of 2(S)-Amino-1-cyclohexyl-4,4-difluoro-3(R),5(R)-dihydroxy-6-methylheptane], the IC50 is 1 nM. `CC(C)[C@@H](O)C(F)(F)[C@H](O)[C@H](CC1CCCCC1)NC(=O)[C@H](Cc1c[nH]cn1)NC(=O)[C@@H](CC(=O)N1CCOCC1)Cc1ccccc1` [Example 83, 2(R)-2-Benzyl-3-Morpholinocarbonylpropionic acid amide of His-2(S)-Amino-1-cyclohexyl-4,4-difluoro-3(R),5(R)-dihydroxy-6-methylheptane]: the IC50 came to 1.5 nM.

With `CC(C)C(O)C(F)(F)C(O)C(CC1CCCCC1)NC(=O)C(Cc1c[nH]cn1)NC(=O)C(CC(=O)N1CCOCC1)Cc1cccc2ccccc12` [Example 86, 2(R,S)-(4-morpholinylcarbonylmethyl)-3-(1′-naphthyl)-propionic acid amide of His-2(S)-amino-1-cyclohexyl-4,4-difluoro-3(R),5(R)-dihydroxy-6-methylheptane], the IC50 worked out at 1.2 nM. Consider `CC(C)C(O)C(F)(F)C(O)C(CC1CCCCC1)NC(=O)C(Cc1c[nH]cn1)NC(=O)C(=Cc1ccccc1)CC(=O)N1CCOCC1` [Example 87, (E)-2-((4-Morpholinylcarbonyl)methyl)cinnamic acid amide of His-2(S)-amino-1-cyclohexyl-4,4-difluoro-3(R),5(R)-dihydroxy-6-methylheptane], for which the IC50 worked out at 5.2 nM. To `CC(C)[C@@H](O)C(F)(F)[C@H](O)[C@H](CC1CCCCC1)NC(=O)[C@H](Cc1cscn1)NC(=O)[C@@H](CC(=O)N1CCN(C)CC1)Cc1ccccc1` [Example 93, 2(R)-2-Benzyl-3(4-methylpiperazine-1-ylcarbonyl)propionic acid amide of L-(4-thiazolyl)alamine-2(S) amino-1-cyclohexyl-4,4-difluoro-3(R),5(R)-dihydroxy-6-methylheptane] belongs 1.5 nM; to `CC(C)CC(NC(=O)C(Cc1ccccc1)NC(=O)OC(C)(C)C)C(=O)NC(CC1CCCCC1)C(=O)C(F)(F)C(=O)C(C)C` [Example 98, Boc-Phe-Leu amide of 2(S)-Amino-1-cyclohexyl-4,4-difluoro-3,5-dioxo-6-methylheptane], 0.69 nM; to “Cbz((β,β-di-Me)-β-Ala)-Phe-His amide of 2(S)-Amino-1-cyclohexyl-4,4-difluoro-3(R),5(R)-dihydroxy-6-methylheptane [Example 79]”, 1.1 nM.
